Laboratory results: patent US4772594A, “Prodrug compounds, process for the preparation thereof and sustained release preparation comprising the same” (Fujisawa Pharmaceutical Co., Ltd., priority 1986, dated 1988)
Like-named read-outs stand apart in the source and are kept apart here.

Columns and labels:
[1] = system: Mouse leukemia cell L 1210; assay: Anti tumor test 1: survival of mice implanted with L 1210 leukemia; type: in vivo; conditions: for T/C: mean survival time vs control
Excerpt: The mixture of chloroform and methanol (8:2 V/V) containing egg yolk lecithin (245 μmole), egg yolk sphingomyelin (105 μmole) and Cytarabine prodrug (Example 8) (87.5 and 262.5 μmole respectively) was taken in a roundbottom flask. Liposome suspensions containing Cytarabine prodrug (Concentration: 10 and 20 μmole/ml respectively) were obtained in a similar manner to that of the above-mentioned method. Mouse leukemia cell L 1210 (10^5 cells) were implanted intraperitoneally into BDF female mice (7 weeks).
After 24 hours after inoculation, Cytarabine aqueous solution (dose: 1000 and 3000 μmole/kg respectively), above-mentioned liposome suspension containing Cytarabine prodrug (dose: 100 and 300 μmole/kg respectively)and aqueous solution of N^4 -behenoyl-1-β-arabinofuranosylcytosine (hereinafter referred to as BHAC) which is a known compound as Cytarabine prodrug and is shown by the following structure (dose: 100 and 300 μmole/kg respectively) were administered intravenously to the mouse at a volume of 0.2 ml or 0.3 ml (in case the administration at the dose of 300 μmole/kg of Cytarabine prodrug) per 20 g of mouse body weight. After the treatment, survival of the mice was recorded. [drawing 9]

[2] = system: Mouse leukemia cell L 1210; assay: as above; type: in vivo; conditions: i.v. aqueous solution, 100 μmole/kg
[3] = system: human lung adenocarcinoma A 549; assay: Anti tumor test 2: growth inhibition of A 549 under the subrenal capsule of mice; type: in vivo; conditions: Day 14, i.v. aqueous solution, 1000 μmole/kg at Day 1, 5, 9
Excerpt: The mixture of chloroform and methanol (3:1 V/V) containing egg yolk lecithin (245 μmole), egg yolk sphingomyelin (105 μmole) and Cyarabine prodrug (Example 8) (87.5 and 157.5 μmole respectively) was taken in a round-bottom flask. Liposome suspensions containing Cytarabine prodrug (Concentration: 10 and 18 μmole/ml respectively) were obtained in a similar manner to that of the above-mentioned method.
A fragment of human lung adenocarcinoma A 549 was implanted under the subrenal capsule of BDF female mouse (8 weeks). Cytarabine aqueous solution (dose: 1000 μmole/kg) and above-mentioned liposome suspension containing Cytarabine prodrug (dose: 100 and 180 μmole/kg respectively)were administered intravenously to the mice at a volume of 0.2 ml per mouse body weight 20 g at Day 1, 5 and 9 after implantation. The tumor volume at Day 14 after implantation was measured and the growth inhibition percent was calculated. (In this test, to clarify the anti tumor effect of each preparation, 17-allyl-1,14-dihydroxy-12-[2-(4-hydroxy-3- methoxycyclohexyl)-1-methylvinyl]-23,25-dimethoxy-13,19,21,27-tetramethyl- 11,28-dioxa-4-azatricyclo[22.3.1.0^4,9 ]octacos-18-ene-2,3,10,16-tetraone as immunosuppressive substance(dose: 32 mg/kg) was administered subcutaneously at Day 1, 2, 5, 7, 9 and 12 after implanation.)

[4] = Conversion Test 1: conversion half life of prodrug to parent compound in rat serum; type: in vitro ADME; conditions: rat, serum; for half-life: Half life (t 1/2)
Method: Chloroform solution containing egg yolk lecithin (84 μmole), egg yolk sphingomyelin (36 μmole) and Mitomycin C prodrug ( 6 μmole) obtained in the below-mentioned Example 1 or 2 was poured into a round-bottom flask and evaporated to dryness.
To this were added sodium cholate (258 mg) and pH 7.4 phosphate buffered saline (hereinafter referred to as PBS) (4.8 ml) and the mixture was agitated to give a clear purple solution.
Sodium cholate was removed from the solution by the Lipoprep dialyzer (detergent removal apparatus prepared by Diachema Co., Ltd.) to give a liposome suspension containing Mitomycin C prodrug.
Chloroform solution containing egg yolk lecithin (70 μmole), egg yolk sphingomyelin (30 μmole) and FR900482 substance prodrug (Example 6)(5 μmole) was poured into a round-bottom flask and a liposome suspension containing FR900482 substance prodrug was obtained in a similar manner to that of above-mentioned method.
Above-mentioned two liposome suspensions containing Mitomycin C prodrug were each diluted with PBS at 2.5 times.
The liposome suspension containing FR900482 substance prodrug was diluted with PBS to obtain the drug concentration of 0.5 μmole/ml and was filtered through millex-GV (trademark: prepared by Millipore Co., Ltd.) filter (0.22μ).
After the liposome suspension and ethanol solution of each prodrug (0.5 ml) were added to mouse, rat or human serum (4.5 ml, 37° C.), samples were taken periodically and the concentration of each prodrug was determined by high-performance liquid chromotography.
Conversion half lives (t 1/2) of each prodrug to each parent compound in various kinds of serum were calculated by the concentration of each prodrug remaining at each time.

[5] = Toxicity test: body weight change after i.v. administration to mice; type: in vivo, ICR male mice; conditions: mouse
Method: Each chloroform solution of egg yolk lecithin (126 μmole), egg yolk sphingomyelin (54 μmole) and Mitomycin C prodrug (Example 1) (3.75, 24 and 37.5 μmole respectively) was combined in a round-bottom flask and evaporated to dryness. Liposome suspensions containing Mitomycin C prodrug were obtained according to the same procedures as described above. The liposome suspensions were diluted with PBS to obtain the desired drug concentration (0.15, 0.96 and 1.50 mg/ml as Mitomycin C) and were filtered through polycarbonate membranes (0.1 μ). PBS solution of Mitomycin C (dose: 1.0 and 6.4 mg/kg/day respectively) or above-mentioned liposome suspension containing Mitomycin C prodrug (dose: 1.0, 6.4 and 10 mg/kg/day as Mitomycin C) were administered intravenously to ICR male mice (6 week) at Day 1, 3 and 5 and the body weight change was recorded from Day 1 to 15.

[6] = Bioavailability Test 3: blood concentration after i.v. emulsion or aqueous solution in mice; type: in vivo, ICR female mice; conditions: mouse, iv, 0.8 umol/animal, read-out: Blood concentration of Mitomycin C Prodrug (Example 1)
Method: The liposome suspension containing Mitomycin C prodrug (Example 1), which was prepared in the above Bioavailability Test 1, was diluted with PBS at the concentration of Mitomycin C prodrug of 2.5 μmole/ml and was filtered through a polycarbonate membrane (0.1μ). 0.2 ml of PBS solution of Mitomycin C or the liposome suspension containing Mitomycin C prodrug was administered intravenously to ICR female mice (8 weeks, body weight: about 25 g, 3 per one group) respectively, and the blood samples were withdrawn by cardiac puncture under anesthesia. The blood concentrations of Mitomycin C and Mitomycin C prodrug were determined in accordance with the same procedures as described in Bioavailability Test 1.
Each chloroform solution of Mitomycin C prodrug (Example 1) (4 μmole), Panacete 800 (trademark, prepared by Nihon Yushi Co., Ltd.) (40 mg), egg yolk lecithin (14 mg) and HCO-60 (trademark, prepared by Nikko Chemicals Co., Ltd.) (8 mg) was combined in a round-bottom flask and evaporated to dryness. To this was added PBS (1 ml) and emulsified with a sonicator to give an emulsion containing Mitomycin C prodrug. Each chloroform solution of liitomycin C prodrug (Example 1) (4 μmole) and HCO-60 (24 mg) was combined in a roundbottom flask and evaporated to dryness. The residue was dispersed in 1 ml of PBS and agitated vigorously to yield a clear solution. 0.2 ml of each preparations thus obtained which contained the prodrug at 4 μmole/ml, was administered to mice and the blood concentrations of Mitomycin C and Mitomycin C prodrug were determined according to the same procedures as described in Bioavailability Test 2.

[7] = Bioavailability Test 1: blood concentration after i.v. administration to rats; design: species or system SD male rats; conditions: rat, in vivo, iv
Method: Chloroform solution (14.3 ml) containing egg yolk lecithin (126 μmole), egg yolk sphingomyelin (54 μmole) and Mitomycin C prodrug (Example 1) (24 μmole) was poured into a round-bottom flask and evaporated at one hour. To this were added sodium cholate (194 mg) and PBS (6 ml) and agitated. A liposome suspension containing Mitomycin C prodrug was obtained according to a similar manner to that of above-mentioned method. The liposome suspension thus prepared was diluted with PBS to obtain the drug concentration of 3.0 μmole/ml and was filtered through a polycarbonate membrane (0.1 μ). 1.0 ml of PBS solution of Mitomycin C or the liposome suspension containing Mitomycin C prodrug prepared by the above-mentioned method was administered intravenously to SD male rats (7 weeks, body weight: about 300 g, 4 per one group) and blood samples were withdrawn at appropriate intervals from subclavian vein. The plasma samples were deproteinzed and the concentration of Mitomycin C was determined by high-performance liquid chromatography.
While Mitomycin C prodrug in the blood was determined by high-performance liquid chromatography after extraction with ethanol from the freeze-dried blood samples.

[8] = Bioavailability Test 2: blood concentration after i.v. administration to mice; type: in vivo, ICR female mice; conditions: iv, mouse, i.v. PBS solution of Mitomycin C
Method: The blood concentrations of Mitomycin C and Mitomycin C prodrug were determined in accordance with the same procedures as described in Bioavailability Test 1.

[9] = i.v. BHAC aqueous solution, 100 μmole/kg
[10] = i.v. BHAC aqueous solution, 300 μmole/kg
[11] = i.v. aqueous solution, 1000 μmole/kg
[12] = i.v. aqueous solution (4 μmole/ml, 0.2 ml)
[13] = i.v. emulsion (4 μmole/ml, 0.2 ml)

**Q.** What does the source list for `CCCCCCCCCCCCCCCCCCCCCC(=O)Nc1ccn([C@@H]2O[C@H](CO)[C@@H](O)[C@@H]2O)c(=O)n1` [BHAC, N^4-behenoyl-1-β-arabinofuranosylcytosine]?
**A.** Mean survival time [1, 9]: 11.0 ± 0.3 days; Mean survival time [1, 10]: 15.3 ± 0.5 days; T/C [1, 9]: 122%; T/C [1, 10]: 170%

**Q.** Which Mean survival time [1, 11] does the source give for `Nc1ccn([C@@H]2O[C@H](CO)[C@@H](O)[C@@H]2O)c(=O)n1` [Cytarabine, 1-β-D-arabinofuranosylcytosine] here?
**A.** 10.8 ± 0.3 days

**Q.** And the T/C [1, 11]?
**A.** 120%

**Q.** What about the Mean survival time [2] of the same compound?
**A.** 9.5 ± 0.2 days

**Q.** And the T/C ([2]; mean survival time vs control)?
**A.** 106%

**Q.** What about the “Tumor volume mean value ± standard error” value [3] of the same compound?
**A.** 17.7 ± 3.2 mm^3

**Q.** What about the Inhibition ([3]; tumor growth) of the same compound?
**A.** 41.7%

**Q.** Which results are given for `CO[C@@]12[C@H](COC(N)=O)C3=C(C(=O)C(C)=C(N)C3=O)N1C[C@H]1[C@@H]2N1C(=O)CNC(=O)O[C@H]1CC[C@@]2(C)C(=CC[C@H]3[C@@H]4CC[C@H]([C@H](C)CCCC(C)C)[C@@]4(C)CC[C@@H]32)C1` [Example 1, [1aS-(1aα, 8β, 8aα, 8bα)]-6-amino-8-carbamoyloxymethyl-N'-[N-(cholest-5-en-3β-oxycarbonyl)glycyl]-1,1a,2,8,8a,8b-hexahydro-8a-methoxy-5-methy-aziridino[2',3':3,4]pyrrolo [1,2-a]indole-4,7-dione]?
**A.** Half life (t 1/2) [4]: 10.0 h; half-life [4]: 5.7 h; Body weight ([5]; i.v. liposome suspension, 1.0 mg/kg/day as Mitomycin C at Day 1, 3, 5, 1 day): 32.78 g; Body weight ([5]; i.v. liposome suspension, 6.4 mg/kg/day as Mitomycin C at Day 1, 3, 5, 1 day): 33.86 g; Body weight ([5]; i.v. liposome suspension, 10.0 mg/kg/day as Mitomycin C at Day 1, 3, 5, 1 day): 35.14 g; concentration at 1 h [6, 12]: 186 µM; concentration at 4 h [6, 12]: 73.9 µM; concentration at 7 h [6, 12]: 22.2 µM; concentration at 1 h [6, 13]: 251 µM; concentration at 4 h [6, 13]: 81.6 µM; concentration at 7 h [6, 13]: 39 µM

**Q.** With `CO[C@@]12[C@H](COC(N)=O)C3=C(C(=O)C(C)=C(N)C3=O)N1C[C@H]1[C@@H]2N1C(=O)CO[C@H]1CC[C@@]2(C)C(=CC[C@H]3[C@@H]4CC[C@H]([C@H](C)CCCC(C)C)[C@@]4(C)CC[C@@H]32)C1` [Example 2, [1aS-(1aα, 8β, 8aα,8bα)]-6-amino-8-carbamoyloxymethyl-N-(cholest-5-en-3β-oxyacetyl) 1,1a,2,8,8 a,8b-hexahydro-8a-methoxy-5-methyl-aziridino [2',3':3,4]pyrrolo[1,2-a]indole-4,7-dione] as the compound, how does the “Half life (t 1/2)” value [4] read?
**A.** 17.3 h

**Q.** And the half-life [4]?
**A.** 9.3 h

**Q.** With `CO[C@@]12[C@H](COC(N)=O)C3=C(C(=O)C(C)=C(N)C3=O)N1C[C@@H]1N[C@@H]12` [Mitomycin C] as the compound, how does the concentration at 5 min [7] read?
**A.** 10.7 µM

**Q.** And the concentration at 0.25 h [7]?
**A.** 5.54 µM

**Q.** And the concentration at 0.5 h [7]?
**A.** 3.32 µM

**Q.** And the concentration at 1 h [7]?
**A.** 1.04 µM

**Q.** And the concentration at 2 h [7]?
**A.** 0.11 µM

**Q.** And the Body weight ([5]; i.v. PBS solution, 1.0 mg/kg/day at Day 1, 3, 5, 1 day)?
**A.** 33.78 g

**Q.** What about the Body weight ([5]; i.v. PBS solution, 1.0 mg/kg/day at Day 1, 3, 5, 5 days) of the same compound?
**A.** 33.86 g

**Q.** And the Body weight ([5]; i.v. PBS solution, 1.0 mg/kg/day at Day 1, 3, 5, 15 days)?
**A.** 35.26 g

**Q.** What about the Body weight ([5]; i.v. PBS solution, 6.4 mg/kg/day at Day 1, 3, 5, 1 day) of the same compound?
**A.** 35.54 g

**Q.** What about the Body weight ([5]; i.v. PBS solution, 6.4 mg/kg/day at Day 1, 3, 5, 5 days) of the same compound?
**A.** 29.36 g

**Q.** What about the “Death (in body weight column, 15 days)” value ([5]; i.v. PBS solution, 6.4 mg/kg/day at Day 1, 3, 5, at 8 days) of the same compound?
**A.** All died

**Q.** What about the concentration at 5 min ([8]; 5 min) of the same compound?
**A.** 9.15 µM

**Q.** What about the concentration at 0.25 h ([8]; 15 min) of the same compound?
**A.** 2.76 µM

**Q.** And the concentration at 0.5 h ([8]; 30 min)?
**A.** 1.57 µM

**Q.** And the concentration at 1 h ([8]; 1 hr)?
**A.** 0.11 µM
